Experiments:
VCap cells = experiment: Inhibition of proliferation of VCap cells (Cell Titer Glo, 6 days); assay type: cell-based; conditions: Homo sapiens, VCaP, 144 h
Protocol: Tumor cell line VCap FGC (ATCC catalog number CRL-2876) was cultured in DMEM (Gibco catalog number 11965-092) medium containing 10% FBS (Gibco catalog number 10099-141C), respectively. During the determination, Vcap cells were replaced with DMEM medium containing 5% FBS and 0.1 nM R1881 (Sigma catalog number R0908).
Vcap FGC cells were inoculated in a 384-well plate (Perkin Elmer catalog number 6007460) at a cell density of 1200 cells/well in a volume of 20 μL/well and incubated overnight in a carbon dioxide incubator (Thermo). The prepared compound solutions of different concentrations were added in a volume of 5 μL/well. The corresponding vehicle control was set at the same time. After being cultured in the incubator for 6 days, the cell plate and the contents were equilibrated to room temperature, and 25 μL of Cell Titer Glor (Promega catalog number G7573) was added to each well, shake and mix well, incubated in dark for 10-30 minutes, and the signal values were detected though Envision microplate reader (PerkinElmer).
The percentage inhibition rate of compound-treated wells was calculated from vehicle control wells on the plate, and the percentage inhibition rate data corresponding to different concentrations were fitted by GraphPad prism, and the IC50 values were calculated by 4-parameter nonlinear logic formula.

androgen receptor = biological target: T1, androgen receptor (Homo sapiens, UniProt P10275); experiment: In-Cell-Western determination of androgen receptor degradation in VCaP cells; assay type: cell-based; conditions: 24 hours treatment; for DC50: concentration for half of the maximal degradation of AR in VCaP cells; for Dmax: maximum degradation of AR in VCaP cells
T1 construct: endogenous in cells; host or cells: VCaP cells
T1 sequence (P10275 1-920): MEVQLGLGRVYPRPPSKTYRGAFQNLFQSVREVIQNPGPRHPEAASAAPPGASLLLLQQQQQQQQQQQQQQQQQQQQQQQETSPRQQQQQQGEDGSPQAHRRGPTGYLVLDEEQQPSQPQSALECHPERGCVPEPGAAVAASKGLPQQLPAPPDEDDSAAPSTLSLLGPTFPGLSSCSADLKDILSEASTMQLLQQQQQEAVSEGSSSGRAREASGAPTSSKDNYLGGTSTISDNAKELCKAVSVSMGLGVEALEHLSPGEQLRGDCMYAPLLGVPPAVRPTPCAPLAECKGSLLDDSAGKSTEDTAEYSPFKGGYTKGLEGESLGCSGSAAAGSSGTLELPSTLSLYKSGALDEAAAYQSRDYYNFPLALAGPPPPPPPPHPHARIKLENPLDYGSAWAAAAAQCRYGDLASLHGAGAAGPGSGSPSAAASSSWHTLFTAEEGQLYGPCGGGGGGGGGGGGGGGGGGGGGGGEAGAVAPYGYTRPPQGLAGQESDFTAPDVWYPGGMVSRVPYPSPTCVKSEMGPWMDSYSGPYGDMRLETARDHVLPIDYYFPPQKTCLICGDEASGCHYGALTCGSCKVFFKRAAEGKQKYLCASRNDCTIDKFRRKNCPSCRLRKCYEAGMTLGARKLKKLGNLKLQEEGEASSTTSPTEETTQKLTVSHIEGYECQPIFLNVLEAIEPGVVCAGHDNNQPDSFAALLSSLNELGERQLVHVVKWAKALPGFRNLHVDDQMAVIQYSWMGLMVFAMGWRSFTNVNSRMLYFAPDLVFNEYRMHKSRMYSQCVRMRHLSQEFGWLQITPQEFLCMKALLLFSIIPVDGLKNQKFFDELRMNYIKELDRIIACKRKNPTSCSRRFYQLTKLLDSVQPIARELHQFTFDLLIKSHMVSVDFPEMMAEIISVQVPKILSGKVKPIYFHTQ
Protocol: The determination evaluated the properties of the compounds in Vcap cells. Intracellular androgen receptor was determined by In-Cell-Western according to the determination steps described below.
In poly-D-Lysin pretreated 96-well cell culture plate (Corning 3599), Vcap cells were divided into […] volume, and inoculated with 50,000 cells/well in Vcap cell assay medium [DMEM containing phenol red (Gibco catalog number: 11995065); fetal bovine serum FBS (Gibco catalog number: 10099141C)]. Cells were cultured for at least two days.
1. First treated cells with compound. Compounds were gradient diluted with DMSO and cell culture medium, so that DMSO contained in cell culture plates was diluted to 0.5% —polypropylene plates were used according to the following protocol:
(1)(i) 200× stock plate in DMSO was prepared; (ii) 10 mM stock solution was diluted 1:4 with DMSO (10 μL stock solution+40 μL DMSO)=2000 μM, then entered into row 2; (iii) 1:4 (10 μL protac+40 μL DMSO) gradient dilution was performed in row 2 to row 9, and row 1 was reserved for 2000 μM reference compound and row 10 for DMSO. (iv) A total of 8 concentrations (final concentrations on the 200×plate were 2000 μM, 400 μM, 80 μM, etc.). (i) 3×stock solution in medium was prepared; (ii) 3 μL of 200× stock solution was transferred to 197 μL of culture medium (using 12-channel pipette, from line 1 to line 10), i.e. 3× stock solution plate. (iii) The stock solution plate was mixed evenly. (3) (i) The culture medium of Vcap cells was replaced with fresh culture medium, 100 μL volume culture medium. (ii) The well-mixed 3×stock solution was transferred to the cell culture plate (using 12-channel pipette, and 50 μL of stock solution was transferred from line 1 to line 10). (iii) Cells were cultured for 24 hours.
2. The expression level of intracellular androgen receptor after compound treatment was […] and determined according to the following method.
(1)(i) Equal volume of 8% paraformaldehyde was added to the cell culture plate for cell fixation. The fixing solution in the cell plate was discarded and washed three times with PBS. (ii) Triton solution (1:1000 dilution of the stock solution) was prepared. The solution in the cell plate was discarded, and 200 μL of Triton diluent was added into each well. (iii) 2×blocking solution (1:4 dilution of 10×blocking stock solution) was prepared. The solution in the cell plate was discarded, and 100 μL of 2×blocking solution was added into each well. (iv) Primary antibody solution (Androgen receptor Rabbbit mAb, Cell Signaling Technology catalog number: 5153; 1:1000 dilution) was prepared. The solution in the cell plate was discarded, 100 μL volume of primary antibody diluent was added to each well, and incubated at 4° C. overnight. (v) The primary antibody solution was discarded and the cell plate was washed with 1×Wash buffer. (vi) Secondary antibody solution (GOAT Antirabbit IgG (H+L), HRP, Thermo catalog number: 31460; 1:5000 dilution) was prepared, and 100 μL volume of secondary antibody dilution was added to each well for incubation. (vii) The secondary antibody solution in the cell plate was discarded and the cell plate was washed with 1× Wash buffer. (viii) TMB chromogenic solution (BD catalog number: 550534) was prepared, and 100 μL chromogenic solution was added into each well. (ix) 50 μL volume of stop solution (BD catalog number: 550534) was added to each well. (x) The absorption values at OD 450 nm and 570 nm were read though EnVision. (2)(i) Normalized analysis was performed on the number of cells in each well. The solution in the cell plate was discarded, and washed with wash buffer for three times. (ii) Janus dilution (1:3 dilution) was prepared. (iii) 50 μL volume diluent was added to each well for incubation. (iv) The solution in the plate was discarded and washed with deionized water. […]

Row | SMILES | Emax (VCap cells) [%] | IC50 (VCap cells) [nM] | DC50 (androgen receptor) [nM] | Dmax (androgen receptor) [%]
1 | CC1(C)C(=O)N(c2ccc(C#N)c(Cl)c2)c2ccc(-c3ccc(N4CC(CN5CCN(c6ccc7c(c6)C(=O)N(C6CCC(=O)NC6=O)C7=O)CC5)C4)nc3F)cc21 (centres unmarked) [Compound 14] | 94 | 67 | 94 | 85
2 | CC1(C)C(=O)N(c2ccc(C#N)c(C(F)(F)F)c2)c2ccc(-c3ccc(N4CC(CN5CCN(c6ccc7c(c6)C(=O)N(C6CCC(=O)NC6=O)C7=O)CC5)C4)cc3)cc21 (centres unmarked) [Compound 3] |  |  | 76 | 60
3 | CC1(C)C(=O)N(c2ccc(C#N)c(Cl)c2)c2ccc(-c3ccc(N4CC(CN5CCN(c6ccc7c(c6)C(=O)N(C6CCC(=O)NC6=O)C7=O)CC5)C4)cc3)cc21 (centres unmarked) [Compound 1] |  |  | 35 | 68
